According to patent publication US20230102483A1, “[6R]-MTHF IN 5-FU BASED CHEMOTHERAPY OF LEFT-SIDED COLORECTAL CANCER” (Isofol Medical AB, priority 2021, published 2023):

Key:
[1] = tested on: metastatic colorectal cancer tumors (Stadium IV CRC patients); assay: Clinical Study ISO-CC-005 (Phase I/IIa) safety extension cohorts and Follow-up study: tumour response by CT/MRI per RECIST 1.1; assay type: in vivo, human
Excerpt: As used herein, the term ORR shall refer to the Objective Response Rate, ie. the proportion of patients with reduction in tumor burden of a predefined amount. […] (Note: the appearance of one or more new lesions is also considered progression). […] Shortly after, applicant started two additional treatment groups in 2018 to generate more safety and efficacy data, i.e. the safety extension Cohort #18 (Treatment Arm #4) and Cohort #19 (Treatment Arm #6). The aim was to evaluate as many patients as possible from the additional treatment groups after a treatment period of 16 weeks or more. On 30 Sep. 2020, applicant announced response assessment data from the two safety extension cohorts (31 patients) treated for 16 weeks or longer (press release: 55% Overall Response Rate on the safety extension cohorts of the ISO-CC-005 Phase I/IIa study|BioSpace). […] These patients had been treated with the selected dose regimen of 120 mg/m2 arfolitixorin and 5-fluorouracil (5-FU) with either irinotecan or oxaliplatin ([…]). Out of the 31 patients, 17 were treated with an ARFOX regimen. Clinical Study ISO-CC-005 was an exploratory, Phase I/II multiple-centre study to be carried out in Stadium IV CRC patients. The study was designed to show clinical relevance for patients by characterizing the tolerability of four arfolitixorin dose levels (30, 60, 120, and 240 mg/m2) in six different standard clinical settings in the presence of fixed doses of 5-FU alone or in combination with either oxaliplatin, irinotecan, or oxaliplatin and bevacizumab. [table] The study was divided in the Main Study and the Follow-up Study. In the Main Study, patients received study treatment with arfolitixorin during eight weeks. Patients eligible for the Follow-up study could participate until reaching progress, but no longer than 18 months. […] The goal with the Dose-finding part of the Main Study was to establish the arfolitixorin dose level assessed as having the most favourable profile, i.e. the selected phase 2 dose (SP2D). […] Response was measured in short- and long-term assessments. […]

[2] = leucovorin vs levoleucovorin; cited from earlier work
[3] = cited from earlier work

Nc1nc2c(c(=O)[nH]1)N1CN(c3ccc(C(=O)N[C@@H](CCC(=O)O)C(=O)O)cc3)C[C@H]1CN2 [[6R]-5,10-MTHF, [6R]-5,10-methylenetetrahydrofolate]
progression of tumors between 8 and 16 weeks after initiating treatment ([1]; ISO-CC-005, treatment period of at least 8 weeks): No statistically significant progression | best ORR, patients diagnosed with LCRC or RCA ([1]; left-sided or rectal primary tumor (18 patients), 16 weeks and beyond, 120 mg/m2 arfolitixorin): > 60% | best ORR, only LCRC (without the rectal cases) ([1]; left-sided primary tumor (13 patients), 16 weeks and beyond, 120 mg/m2 arfolitixorin): ~70%

Nc1nc(=O)c2c([nH]1)NC[C@H](CNc1ccc(C(=O)N[C@@H](CCC(=O)O)C(=O)O)cc1)N2C=O [1-LV]
pharmacokinetic comparison [2]: pharmacokinetically identical | metabolic conversion ([3]; In vitro): rapidly converted to the biologically available methyl-tetrahydrofolate form

Nc1nc2c(c(=O)[nH]1)N(C=O)[C@H](CNc1ccc(C(=O)N[C@@H](CCC(=O)O)C(=O)O)cc1)CN2 [d-LV]
excretion ([3]; kidneys): slowly excreted by the kidneys

Nc1nc2c(c(=O)[nH]1)N(C=O)C(CNc1ccc(C(=O)N[C@@H](CCC(=O)O)C(=O)O)cc1)CN2 (stereo partly shown) [Leucovorin, 5-formyl tetrahydrofolic acid]
pharmacokinetic comparison [2]: pharmacokinetically identical
